In brackets after ≈: the same amount, converted by molar mass. Where two headings read alike, the source gives them in different places.
Experiments:
[1] = Lyophilisation solubility assay (LYSA); type: physicochemical; settings: thermodynamic from solid
Procedure: The solubility of compounds of present invention was assessed by LYSA assay. Samples were prepared in duplicate from 10 mM DMSO stock solutions ([…]) diluted in 30 μL pure DMSO. After evaporation of DMSO with a centrifugal vacuum evaporator, the residue was dissolved in 0.05 M phosphate buffer (150 μL, pH 6.5), which was stirred for one hour and shook for two hours. After one night, the solution was filtered using a microtiter filter plate. Then the filtrate and its 1/10 dilution were analyzed by HPLC-UV. In addition, a four-point calibration curve was prepared from the 10 mM stock solutions and used for the solubility determination of the compounds.

A. baumannii (ATCC17978) = assay: 50% growth inhibitory concentration (IC50) determination assay, A. baumannii; type: cell-based; settings: Acinetobacter baumannii, growth inhibition, Iso-Sensitest broth, OD 600 nm over 16h, <0.098 = the detection limit
Procedure: (§1) The in vitro antimicrobial activity of the compounds against S. aureus (ATCC29213), K. pneumoniae (ATCC10031), and A. baumannii (ATCC17978), was determined according to the following procedure: The assay used a 10-points Iso-Sensitest broth medium to measure quantitatively the in vitro activity of the compounds against S. aureus ATCC29213, K. pneumoniae ATCC 10031, and A. baumannii ATCC17978. Stock compounds in DMSO were serially two-fold diluted (range from 50 to 0.097 μM final concentration) in 384 wells microtiter plates and inoculated with 49 μL the bacterial suspension in Iso-Sensitest broth medium to have a final cell concentration of ˜5×10^5 CFU/mL in a final volume/well of 50 μL/well. Microtiter plates were incubated at 35±2° C. Bacterial cell growth was determined with the measurement of optical density at λ=600 nm each 20 minutes over a time course of 16h. Growth inhibition was calculated during the logarithmic growth of the bacterial cells with determination of the concentration inhibiting 50% (IC50) of the growth. Compounds of the present invention were tested for their concentration inhibiting 50% (IC50). The data of IC50 over S. aureus (ATCC29213), K. pneumoniae (ATCC10031), and A. baumannii (ATCC17978) are illustrated in Table 4.

[2] = system: K. pneumoniae (ATCC10031); assay: 50% growth inhibitory concentration (IC50) determination assay, K. pneumoniae; type: cell-based; settings: Klebsiella pneumoniae, growth inhibition, Iso-Sensitest broth, OD 600 nm over 16h, <0.098 = the detection limit
Procedure: as §1

S. aureus (ATCC29213) = assay: 50% growth inhibitory concentration (IC50) determination assay, S. aureus; type: cell-based; settings: Staphylococcus aureus, growth inhibition, Iso-Sensitest broth, OD 600 nm over 16h, <0.098 = the detection limit
Procedure: as §1

[3] = aqueous buffer, 0.05 M phosphate buffer, pH 6.5, HPLC-UV, <1.0 = the detection limit, read-out: Lysa

| Structure (SMILES) | solubility thermodynamic [1, 3] | IC50 (A. baumannii (ATCC17978)) | IC50 [2] | IC50 (S. aureus (ATCC29213)) | solubility thermodynamic ([1]; pH 6.5, aqueous buffer) |
| --- | --- | --- | --- | --- | --- |
| CCNc1cc(F)c(F)c2c1[nH]c1ncc(-c3cnc(OC)nc3)c(N3CCC[C@@H](CN)C3)c12 [Example 1.53, (S)-4-(3-(Aminomethyl)piperidin-1-yl)-N-ethyl-5,6-difluoro-3-(2-methoxypyrimidin-5-yl)-9H-pyrido[2,3-b]indol-8-amine] | 241 µg/mL (≈ 515 µM) | < 98 nM | < 98 nM | 394 nM | – |
| CNc1cc(F)c(F)c2c1[nH]c1ncc(-c3cnc(OC)nc3)c(N3CCCC(N)C3)c12 (centres unmarked) [Example 1.47, 4-(3-Aminopiperidin-1-yl)-5,6-difluoro-3-(2-methoxypyrimidin-5-yl)-N-methyl-9H-pyrido[2,3-b]indol-8-amine] | 19 µg/mL (≈ 43.2 µM) | 443 nM | < 98 nM | 275 nM | – |
| CNc1cc(F)c(F)c2c1[nH]c1ncc(-c3cnc(C)nc3)c(N3C[C@H]4C[C@@H]3C[C@H]4N)c12 [GP-6, reference compound] | < 1 µg/mL | < 98 nM | < 98 nM | < 98 nM | – |
| CNc1cc(F)c(F)c2c1[nH]c1ncc(-c3cncc(C#N)c3)c(N3CCCC(F)(CN)C3)c12 (centres unmarked) [Example 1.54, 5-[4-[3-(Aminomethyl)-3-fluoro-1-piperidyl]-5,6-difluoro-8-(methylamino)-9H-pyrido[2,3-b]indol-3-yl]pyridine-3-carbonitrile] | 39 µg/mL (≈ 83.8 µM) | < 98 nM | < 98 nM | 477 nM | – |
| CNc1cc(F)cc2c1[nH]c1ncc(-c3cnc(OC)nc3)c(N3C4CNCC3C4)c12 [Example 1.61, 4-(3,6-Diazabicyclo[3.1.1]heptan-6-yl)-6-fluoro-3-(2-methoxypyrimidin-5-yl)-N-methyl-9H-pyrido[2,3-b]indol-8-amine] | – | 792 nM | < 98 nM | 650 nM | 62 µg/mL (≈ 148 µM) |
| CCNc1cc(F)c(F)c2c1[nH]c1ncc(-c3cnc(OC)nc3)c(N3CC[C@@H](N)C3)c12 [Example 1.18, 4-[(3R)-3-Aminopyrrolidin-1-yl]-N-ethyl-5,6-difluoro-3-(2-methoxypyrimidin-5-yl)-9H-pyrido[2,3-b]indol-8-amine] | 195 µg/mL (≈ 444 µM) | 249 nM | < 98 nM | 567 nM | – |
| CCNc1cc(F)c(F)c2c1[nH]c1ncc(-c3cncc(C#N)c3)c(N3CC[C@@H](N)C3)c12 [Example 1.04, 5-[4-[(3R)-3-Aminopyrrolidin-1-yl]-8-(ethylamino)-5,6-difluoro-9H-pyrido[2,3-b]indol-3-yl]pyridine-3-carbonitrile] | 145 µg/mL (≈ 335 µM) | 212 nM | < 98 nM | 380 nM | – |
| CCOc1ncc(-c2cnc3[nH]c4c(NC)cc(F)cc4c3c2N2C3CNCC2C3)cn1 [Example 1.59, 4-(3,6-Diazabicyclo[3.1.1]heptan-6-yl)-3-(2-ethoxypyrimidin-5-yl)-6-fluoro-N-methyl-9H-pyrido[2,3-b]indol-8-amine] | – | 499 nM | < 98 nM | 631 nM | 395 µg/mL (≈ 911 µM) |
| CNc1cc(F)c(F)c2c1[nH]c1ncc(-c3cc[nH]c(=O)c3)c(N(C)C)c12 [Example 1.51, 4-[4-(Dimethylamino)-5,6-difluoro-8-(methylamino)-9H-pyrido[2,3-b]indol-3-yl]-1H-pyridin-2-one] | – | < 98 nM | < 98 nM | 1040 nM | – |
| CCNc1cc(F)c(C)c2c1[nH]c1ncc(-c3cncc(C#N)c3)c(N3CCC(CN)C3)c12 (centres unmarked) [Example 1.45, 5-(4-(3-(Aminomethyl)pyrrolidin-1-yl)-8-(ethylamino)-6-fluoro-5-methyl-9H-pyrido[2,3-b]indol-3-yl)nicotinonitrile] | – | 528 nM | 172 nM | 992 nM | – |

Reference: patent publication US20210309657A1, “TRICYCLIC COMPOUNDS FOR THE TREATMENT AND PROPHYLAXIS OF BACTERIAL INFECTION” (Hoffmann-La Roche Inc., priority 2018, published 2021)
